In one series the test system is guinea pigs. Briefly: Dermal anesthetic activity after dermal application, pinprick method (algesimeter). The format is in vivo, guinea pig. Particulars: highest score over time after patch removal, 5.0% solution. How it is done:
The purpose of this study was to determine the degree to which various salt forms of LAC-34 contribute to the local dermal anesthetic effect of the compound, following dermal application to guinea pigs.
Four groups of six male guinea pigs received a dose of 2.0 ml of a 5.0% solution of four test articles (LAC-34 base, LAC-34 mono-HCl, LAC-34-di HCl and LAC-34 mesylate) that had been applied onto a two inch square, 4 layer thick gauze pad on depilated dosal skin of each guinea pig. Similarly, one group of guinea pigs received the vehicle, which consisted of DMSO/water (90 percent/10 percent, v/v) and served as the control group. The gauze was occluded and the guinea pigs were wrapped for 30 min. Animals were assessed for initial pain reaction (anesthetic depth) at 15 minute intervals up to 3 hours and at 24 hours. An algesimeter, set at 10 g, was employed to assess the onset and depth of anesthesia using the pinprick method causing a twitch response or non-response. The “Average Anesthetic Score” was defined as number of probings not producing a dermal twitch response. Thus, a situation where there were no dermal twitch responses to six probings represent a maximal anesthetic effect and is denoted as an Average Anesthetic Score of 6.

Series [1] concerns animal models of neuropathic pain. As to the kind of experiment: Animal models of neuropathic pain. The format is in vivo. As to conditions: potentiated by addition of capsaicin.
Series [2] concerns Na+ channel (site 2) in the rat cerebral cortex. As to conditions: 10 nM [3H]batrachotoxin, 60 min at 22° C., rat cerebral cortex membranes; read-out: IC50-values for inhibition of batrachotoxinin binding.
Series [3] in a line: Solubility in ternary solvent mixture with water as anti-solvent. As to conditions: 150 mg LAC-34 free base; 1 ml polyethylene glycol + 1 ml ethanol + 0.6 ml water. The format is physicochemical.
Series [4] can be described thus: Saturation solubility in key solvents for dermal drug delivery. The format is physicochemical. On the procedure: A liquid's capability to solubilize LAC-34 was screened by adding a known mass of LAC-34 to a known volume/mass of liquid. Saturation solubility was measured by adding an excess of drug substance and allowing the suspension to equilibrate while stirring for 2-3 days. A sample of the suspension was filtered though a 0.2 μm PTFE membrane followed by dilution (if required) and HPLC analysis. For several mixed solvent systems that included water, a known mass of drug substance was dissolved in a known mass of solvent(s). This solution was then titrated with water while stirring until the solution became cloudy.
HPLC analysis was performed with a HP 1050 system (He degasser, quaternary pump, auto-injector, and variable wavelength detector). The column heater was manufactured by Waters. Data collection and analysis was performed using Chemstation® software.
The saturation solubility of LAC-34 was measured in capric/caprylic triglycerides (CCT), dimethylsulfoxide (DMSO), ethanol, isopropanol, isopropyl myristate (IPM), pentane, propylene glycol (PG), and water. […]
All of the solvents, with the exception of water, were able to dissolve large quantities of LAC-34. […] Propylene glycol (PG), which has multiple actions for dermal drug delivery (see Table 1), was also able to solubilize significant quantities of LAC-34. […]

Series [5] in a line: Physical state of LAC-34 solutions at 4° C. The format is physicochemical. Particulars: 20% LAC-34 in benzyl alcohol.
Series [6] is described as follows: Local vasodilatation at the dermal injection site. Format: in vivo. As to conditions: contrary to lidocaine.

`c1ccc(N(CCC2CCCCN2)C2Cc3ccccc3C2)cc1` (racemic) [LAC-34, 2-[2-(N-Phenyl-N-2-indanyl)aminoethyl]piperidine]: the “Maximal depth of anesthesia (Average Anesthetic Score)” value in the series with guinea pigs is 4.8. Further, the Analgesic activity entry in series [1] is reported as “exerts analgesic activity”. Further, the IC50 in series [2] is 270 nM. The “Solubility in ternary solvent mixture” value in series [3] is reported as 5.5 % (w/w). In series [4] (0.25 g LAC-34 solubilized once isopropanol level was 0.225 g), the Solubility in isopropanol result is “approximately 526 mg/mL”. The “LAC-34 Solubility (saturation)” value in series [4] (solvent as printed on the line: Propylene glycol (PG)) stood at 5 µg/mL. Moreover, the “Physical state at 4° C.” value in series [5] is “still a solution”. Also, the “Local vasodilatation at the dermal injection site” value in series [6] is “not to cause local vasodilatation”.

Broadly, the IC50 is the concentration needed to halve the response being measured.

(Values after patent US20090137628A1, “Formulations of Indanylamines and the Use Thereof as Local Anesthetics and as Medication for Chronic Pain” (BRIDGE PHARMA, INC., priority 2005, published 2009).)
